Experimental data as given in patent US4238473A, “Artificial oligosaccharide antigenic determinants” (priority 1975, dated 1980).

Legend:
[1] = tested on: antibodies raised to this conjugate (antigen 12); test: Hapten inhibition of precipitation of anti-12 sera with (β-D-gal-O(CH2)8 CONH)23 -HSA; format: binding, rabbit; conditions: (β-D-gal-O(CH2)8 CONH)23 -HSA as the precipitating antigen; for IC50: read-out: concentration giving 50% inhibition of precipitation
antisera raised to 13 = test: Hapten inhibition of precipitation between 13 and antisera raised to 13; format: binding, rabbit
Protocol: (§1) This antigen was prepared from the hydrazide derivative of compound 2 using the acyl azide coupling method described in example XII. […] Proof of the hapten specific nature of the response comes from hapten specific inhibition of precipitation between 13 and antisera raised to 13.

[2] = tested on: antibodies raised to this conjugate (antigen 12); format: binding, rabbit; conditions: 50 μl of crude sera raised to antigen 12
Excerpt: (§2) For rabbits the immunization protocol was that described by Martineau^2 and for goats that of Marcus and Grollman^3. The course of the immunization was followed by quantitative precipitin tests on samples of blood withdrawn at various times. The procedures used were all standard to the field of immunology^4.

San Juan rabbits = conditions: six San Juan rabbits, antigen in Freund's complete adjuvant
Excerpt: as §2

rabbits = test: Immunization of rabbits with 13, specificity of sera; format: in vivo, rabbit; conditions: rabbits immunized with 13
Protocol: as §1

[3] = tested on: antiserum raised against [Le^a -O(CH2)8 CONH]30 -BSA; test: Maximum precipitation of anti-[Le^a -O(CH2)8 CONH]30 -BSA antiserum against test antigen; format: binding, rabbit; conditions: as test antigen against antiserum raised to [Le^a -O(CH2)8 CONH]30 -BSA
Protocol: The above antiserum had been raised against the artificial Lewis-a antigen [Le^a -O(CH2)8 CONH]30 -BSA. The maximum precipitation against [Le^a -O(CH2)8 CONH]28 -HSA as test antigen was 277 μg of antibody per 50 μl of antiserum.

[4] = tested on: human Lewis-a blood group substance; test: Goat immunization, cross-reaction of antisera with natural substance; format: in vivo; conditions: goat immunized with the antigen
Excerpt: (§3) To further explore the extent of cross reactions between antibodies raised to the artificial Le^a antigens and human Lewis-a blood group substance and to obtain larger amounts of antisera, a goat was immunized with [Le^a -O(CH2)8 CONH]30 -BSA.

[5] = tested on: human blood group Lewis-(a+b-) red cells; test: Agglutination of red cells by goat antisera to artificial Le^a antigen; format: cell-based; conditions: goat antisera after appropriate treatment
Excerpt: as §3

Lewis (a-) red cells = test: as above; format: cell-based, human; conditions: goat antisera after appropriate treatment
Excerpt: as §3

[6] = tested on: Rabbit antisera raised to Le^a -BSA antigens; test: Immunodiffusion of rabbit antisera raised to Le^a -BSA antigens; format: binding
[7] = at the concentration that methyl β-D-glcNAc was effective

## OC[C@H]1OC(O)[C@H](O)[C@@H](O)[C@H]1O (stereo partly drawn) [galactose]
[1]
  IC50: 6.6 mM

## OC[C@H]1O[C@@H](O[C@H]2[C@H](O)[C@@H](O)C(O)O[C@@H]2CO)[C@H](O)[C@@H](O)[C@H]1O (stereo partly drawn) [lactose]
[1]
  IC50: 70 mM

## CO[C@H]1O[C@H](CO)[C@H](O)[C@H](O)[C@H]1O [methyl α-D-galactopyranoside]
[1]
  IC50: 33 mM

## CO[C@@H]1O[C@H](CO)[C@H](O)[C@H](O)[C@H]1NC(C)=O [methyl β-D-galNAc]
Antisera raised to 13; [7]
  inhibition of precipitation: virtually no inhibition

## CO[C@@H]1O[C@H](CO)[C@H](O)[C@H](O)[C@H]1O [methyl β-D-galactopyranoside]
[1]
  IC50: 0.83 mM

## CO[C@@H]1O[C@H](CO)[C@@H](O)[C@H](O)[C@H]1NC(C)=O [methyl β-D-glcNAc]
Antisera raised to 13; precipitation between 13 and antisera raised to 13
  inhibition of precipitation: 60-80%

## CO[C@@H]1O[C@H](CO)[C@@H](O)[C@H](O)[C@H]1O [methyl β-D-glucopyranoside]
[1]
  inhibition of precipitation: approximately no inhibition
Antisera raised to 13; [7]
  inhibition of precipitation: virtually no inhibition

## (α-D-gal-O(CH2)8 CONH)17 -BSA
[2]
  maximum amount of antibody precipitated: 87 µg

## (β-D-gal-O(CH2)8 CONH)24 -BSA [antigen 12]
San Juan rabbits
  Antibody levels upon completion of the schedule (average): 277 μg per 50 μl sera
[2]
  maximum amount of antibody precipitated: 396 µg

## (β-D-glcNAc-O(CH2)8 CONH)25 -BSA [antigen 13]
rabbits
  specificity of sera from immunized rabbits: high specificity for antigens containing the β-D-glcNAc hapten

## [Le^a -O(CH2)8 CONH]28 -HSA
[3]
  maximum precipitation: 277 μg of antibody per 50 μl of antiserum

## [Le^a -O(CH2)8 CONH]30 -BSA
[4]
  cross-reaction of antisera with human Lewis-a blood group substance: showed the expected cross-reaction
[5]
  agglutination by the antisera: effectively agglutinated
Lewis (a-) red cells
  agglutination by the antisera: did not agglutinate

## dextran
[6]
  line of precipitation on immunodiffusion: No line of precipitation

## polylysine
[6]
  line of precipitation on immunodiffusion: No line of precipitation
